Measurements as given in patent US10908171B2, “Additive channels” (Emulate Inc., priority 2016, dated 2021).

System: platelets
Experiment: Platelet activation quality control by p-selectin expression
Assay type: cell-based, human
Conditions: control blood
Protocol: To test for a thrombic event, blood was collected from 4 donors, the as blood alone or blood treated with hu5C8 alone (240 μg/ml), sCD40L (10 ng/ml) alone or with combined hu5C8/sCD40L was incubated for 20 minutes at room temperature. Each sample was further incubated for 5 minutes with fluorescent labels for platelets and fibrinogen. As a standard quality control, the control blood was tested for platelet activation using p-selection expression. We confirmed that platelets in control blood were not activated but upon activation by ADP, over 90% of platelet was positive for p-selectin.

Nc1ncnc2c1ncn2[C@@H]1O[C@H](COP(=O)(O)OP(=O)(O)O)[C@@H](O)[C@H]1O [ADP]
platelets positive for p-selectin upon activation: over 90%
